This is an account of results in patent US20180282331A1, “7-Oxo -6-(sulfooxy)- 1,6-diazabicyclo [3.2.1] octane containing compounds and their use in treatment of bacterial infections (changed by PCT to: 7-OXO -6-(SULFOOXY)- 1,6-DIAZABICYCLO [3.2.1] OCTANE CONTAINING COMPOUNDS AND THEIR USE IN TREATMENT OF BACTERIAL INFECTIONS” (WOCKHARDT LIMITED, priority 2015, published 2018).

Common to all, as to format: cell-based
Assay [1] concerns E. coli 7 MP. Nature of the assay: MIC of Ceftazidime in combination with compound (4 mcg/ml), agar dilution. To be noted: Escherichia coli, Ceftazidime alone or with constant 4 mcg/ml of compound. As for the experimental part: (§1) The biological activity of representative compounds according to the invention against various bacterial strains was investigated. The Minimum Inhibitory Concentration (MIC) determination for the combinations was carried out in Muller Hinton Agar (MHA) (BD, USA) according to Clinical and Laboratory Standards Institute (CLSI) recommendations, (Clinical and Laboratory Standards Institute (CLSI), Performance Standards for Antimicrobial Susceptibility Testing, 20th Informational Supplement, M 100-S20, Volume 30, No. 1, 2010). In short, the test strains were adjusted to deliver about 10^4 CFU per spot with a multipoint inoculator (Applied Quality Services, UK). The plates were poured with MHA containing doubling concentration range of representative compounds according to present invention. The plates were inoculated and were incubated at 35° C. for 18 hours. […] The Table 5 depicts the antibacterial activity profile of compounds according to present invention against various multidrug resistant bacterial strains.
(§2) The combinations of compounds according to present invention were also tested for their antibacterial activity in combination with Ceftazidime. The plates were poured with MHA containing doubling concentration range of Ceftazidime in combination with constant concentration (4 mcg/ml) of representative compounds of Formula (I).

For assay [2], the system named is E. coli NCTC 13353. The description is as above. Conditions: Escherichia coli, NCTC13353, Ceftazidime alone or with constant 4 mcg/ml of compound. On the procedure: as §1, §2
Assay [3] has as its system E. coli M 50. Described as above. To be noted: Escherichia coli, M50, Ceftazidime alone or with constant 4 mcg/ml of compound. As for the experimental part: as §1, §2
The test system of assay [4] is K. pneumoniae ATCC 700603. Described as above. To be noted: Klebsiella pneumoniae, ATCC700603, Ceftazidime alone or with constant 4 mcg/ml of compound. As for the experimental part:
as §1, §2

The test system of assay [5] is K. pneumoniae H525. The assay is described as above. To be noted: Klebsiella pneumoniae, Ceftazidime alone or with constant 4 mcg/ml of compound. As for the experimental part:
as §1, §2

In assay [6] the test system is E. coli NCTC 13352. The assay is described as above. To be noted: Escherichia coli, NCTC13352, Ceftazidime alone or with constant 4 mcg/ml of compound. On the procedure:
as §1, §2

Assay [7] deals with K. pneumoniae H521. The description is as above. To be noted: Klebsiella pneumoniae, Ceftazidime alone or with constant 4 mcg/ml of compound. On the procedure:
as §1, §2

The subject of assay [8] is E. coli 7 MP. Kind of assay: MIC, agar dilution (MHA), compound alone. Conditions: Escherichia coli; E. coli 7 MP; compound alone; MHA, 35° C., 18 hours; read-out: MIC. As for the experimental part:
as §1

For assay [9], the system named is E. coli NCTC 13353. Kind of assay: MIC, agar dilution (MHA), compound alone. To be noted: Escherichia coli, NCTC13353; E. coli NCTC 13353; compound alone; MHA, 35° C., 18 hours; read-out: MIC. As for the experimental part: as §1
In assay [10] the test system is E. coli M 50. Kind of assay: MIC, agar dilution (MHA), compound alone. Conditions: Escherichia coli, M50; E. coli M 50; compound alone; MHA, 35° C., 18 hours; read-out: MIC. On the procedure: as §1
For assay [11], the system named is K. pneumoniae ATCC 700603. Nature of the assay: MIC, agar dilution (MHA), compound alone. Conditions: Klebsiella pneumoniae, ATCC700603; K. pneumoniae ATCC 700603; compound alone; MHA, 35° C., 18 hours; read-out: MIC. As for the experimental part: as §1
For assay [12], the system named is K. pneumoniae H525. Kind of assay: MIC, agar dilution (MHA), compound alone. Conditions: Klebsiella pneumoniae; K. pneumoniae H525; compound alone; MHA, 35° C., 18 hours; read-out: MIC. On the procedure:
as §1

In assay [13] the test system is E. coli NCTC 13352. Kind of assay: MIC, agar dilution (MHA), compound alone. To be noted: Escherichia coli, NCTC13352; E. coli NCTC 13352; compound alone; MHA, 35° C., 18 hours; read-out: MIC. On the procedure:
as §1

The test system of assay [14] is K. pneumoniae H521. Nature of the assay: MIC, agar dilution (MHA), compound alone. Conditions: Klebsiella pneumoniae; K. pneumoniae H521; compound alone; MHA, 35° C., 18 hours; read-out: MIC. On the procedure: as §1

As for `CC(C)(O/N=C(\C(=O)N[C@@H]1C(=O)N2C(C(=O)[O-])=C(C[n+]3ccccc3)CS[C@H]12)c1csc(N)n1)C(=O)O` [Ceftazidime], the MIC in assay [1] was more than 32 µg/mL; in assay [2], more than 32 µg/mL; in assay [3], more than 32 µg/mL; in assay [4], 16 µg/mL; in assay [5], more than 32 µg/mL; in [6], 16 µg/mL. Besides, in assay [7], the minimal inhibitory concentration (MIC) is more than 32 µg/mL.

`NCCCc1nnnn1CC(=O)NNC(=O)[C@@H]1CC[C@@H]2CN1C(=O)N2OS(=O)(=O)O` [Example 31]: the minimal inhibitory concentration (MIC) is 1 µg/mL in [8]; 0.5 µg/mL in [9]; 0.5 µg/mL in [10]; more than 32 µg/mL in assay [11]; 1 µg/mL in [12]; 0.5 µg/mL in [13]. In addition, the MIC in [14] stood at 1 µg/mL.

Regarding `CCOC(=O)c1nnnn1CC(=O)NNC(=O)[C@@H]1CC[C@@H]2CN1C(=O)N2OS(=O)(=O)[O-].[Na+]` [Example 5], the minimal inhibitory concentration (MIC) is 2 µg/mL in assay [8]; 0.5 µg/mL in assay [9]; 1 µg/mL in assay [10]; more than 32 µg/mL in [11]; 2 µg/mL in assay [12]; 0.5 µg/mL in [13]. In addition, in assay [14], the MIC was found to be 2 µg/mL.

Take `C[C@H](N)C(=O)OCc1nccn1CC(=O)NNC(=O)[C@@H]1CC[C@@H]2CN1C(=O)N2OS(=O)(=O)O` [Example 35]: the minimal inhibitory concentration (MIC) in [8] is 4 µg/mL; in assay [9] it was 1 µg/mL; in assay [10] it was 1 µg/mL; in [11], more than 32 µg/mL; in [12], 2 µg/mL; in assay [13], 1 µg/mL. The MIC in assay [14] is 2 µg/mL.

With `CCOC(=O)Cc1nnnn1CC(=O)NNC(=O)[C@@H]1CC[C@@H]2CN1C(=O)N2OS(=O)(=O)[O-].[Na+]` [Example 12], the minimum inhibitory concentration (MIC) in assay [8] was 2 µg/mL; in [9], 1 µg/mL; in [10] it was 2 µg/mL; in [11], more than 32 µg/mL; in assay [12], 4 µg/mL; in assay [13], 0.5 µg/mL. For the same compound, in [14], the minimal inhibitory concentration (MIC) came out at 4 µg/mL.
